Reference: ChEMBL document CHEMBL2390858, “Design, synthesis and anti-tuberculosis activity of 1-adamantyl-3-heteroaryl ureas with improved in vitro pharmacokinetic properties” (Bioorg Med Chem, 2013)
≈ marks a conversion by molar mass, not a printed value.

Tests used:
[1] = target: T1, Bifunctional epoxide hydrolase 2 (Homo sapiens, UniProt P34913)
T1 sequence (P34913 whole entry): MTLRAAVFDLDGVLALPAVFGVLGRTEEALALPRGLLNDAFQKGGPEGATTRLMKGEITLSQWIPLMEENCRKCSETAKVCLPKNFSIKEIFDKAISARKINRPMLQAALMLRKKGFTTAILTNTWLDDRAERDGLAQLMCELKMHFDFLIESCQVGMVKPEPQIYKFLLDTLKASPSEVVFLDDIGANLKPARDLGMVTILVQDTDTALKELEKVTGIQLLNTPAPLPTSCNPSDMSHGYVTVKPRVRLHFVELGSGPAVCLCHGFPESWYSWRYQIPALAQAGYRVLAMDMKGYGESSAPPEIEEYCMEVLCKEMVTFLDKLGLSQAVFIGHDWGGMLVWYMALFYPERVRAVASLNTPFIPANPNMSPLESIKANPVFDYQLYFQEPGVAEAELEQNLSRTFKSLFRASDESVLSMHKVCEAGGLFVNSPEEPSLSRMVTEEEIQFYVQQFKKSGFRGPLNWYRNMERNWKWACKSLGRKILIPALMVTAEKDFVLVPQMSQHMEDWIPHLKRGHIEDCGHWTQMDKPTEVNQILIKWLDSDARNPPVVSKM

[2] = tested on: Vero; experiment: cells; details: Chlorocebus sabaeus, 72 h
[3] = tested on: Pseudomonas aeruginosa; experiment: microbe, parasite or virus in culture
[4] = tested on: Proteus vulgaris; experiment: microbe, parasite or virus in culture
[5] = tested on: Proteus mirabilis; experiment: microbe, parasite or virus in culture
[6] = tested on: Klebsiella pneumoniae; experiment: microbe, parasite or virus in culture
[7] = tested on: Escherichia coli; experiment: microbe, parasite or virus in culture; details: K-12
[8] = tested on: Burkholderia cepacia; experiment: microbe, parasite or virus in culture
[9] = tested on: Bacillus subtilis; experiment: microbe, parasite or virus in culture
[10] = tested on: Acinetobacter; experiment: microbe, parasite or virus in culture
[11] = tested on: Streptococcus pneumoniae; experiment: microbe, parasite or virus in culture
[12] = tested on: Streptococcus pyogenes; experiment: microbe, parasite or virus in culture
[13] = tested on: Staphylococcus aureus; experiment: microbe, parasite or virus in culture; details: NRS70
[14] = tested on: Staphylococcus aureus; experiment: microbe, parasite or virus in culture; details: ATCC 29213
[15] = tested on: Enterococcus faecalis; experiment: microbe, parasite or virus in culture
[16] = tested on: Bacillus anthracis; experiment: microbe, parasite or virus in culture; details: Sterne
[17] = tested on: Mycobacterium tuberculosis; experiment: microbe, parasite or virus in culture; details: H37Rv, 168 h
[18] = tested on: Plasma; details: human, 4 h, 10 µM
[19] = buffer
[20] = Metabolic stability in CD-1 mouse liver microsomes assessed as compound remaining after 90 mins in presence of NADPH; assay type: ADME, Microsome; details: read-out: Stability
[21] = in vitro; details: human, plasma

Compound | IC50 [1] | IC50 [2] | MIC [3] | MIC [4] | MIC [5] | MIC [6] | MIC [7] | MIC [8] | MIC [9] | MIC [10] | MIC [11] | MIC [12] | MIC [13] | MIC [14] | MIC [15] | MIC [16] | MIC [17] | PPB [18] | solubility ([19]; 18 h, pH 7.4) | remaining at […] [20] | other results
O=C(Nc1nc2ccccc2s1)NC12CC3CC(CC(C3)C1)C2 | 3 nM | 17 µg/mL (≈ 51.9 µM) | > 200 µg/mL | > 200 µg/mL | > 200 µg/mL | > 200 µg/mL | > 200 µg/mL | > 200 µg/mL | 200 µg/mL (≈ 611 µM) | > 200 µg/mL | > 200 µg/mL | > 200 µg/mL | > 200 µg/mL | > 200 µg/mL | > 200 µg/mL | 200 µg/mL (≈ 611 µM) | 0.78 µg/mL (≈ 2.38 µM) | – | – | – | –
CC(C)c1nnc(NC(=O)NC23CC4CC(CC(C4)C2)C3)o1 | 557 nM | 11 µg/mL (≈ 36.1 µM) | > 200 µg/mL | > 200 µg/mL | > 200 µg/mL | > 200 µg/mL | > 200 µg/mL | > 200 µg/mL | > 200 µg/mL | > 200 µg/mL | > 200 µg/mL | > 200 µg/mL | > 200 µg/mL | > 200 µg/mL | > 200 µg/mL | > 200 µg/mL | 1.56 µg/mL (≈ 5.12 µM) | 99.3% | 9.54 µg/mL (≈ 31.3 µM) | – | –
CC(C)(C)c1cc(NC(=O)NC2C3CC4CC(C3)CC2C4)no1 (stereo not drawn) | 73 nM | 7 µg/mL (≈ 22.1 µM) | > 200 µg/mL | > 200 µg/mL | > 200 µg/mL | > 200 µg/mL | > 200 µg/mL | > 200 µg/mL | > 200 µg/mL | > 200 µg/mL | > 200 µg/mL | > 200 µg/mL | 200 µg/mL (≈ 630 µM) | > 200 µg/mL | 6.25 µg/mL (≈ 19.7 µM) | > 200 µg/mL | 0.1 µg/mL (≈ 0.315 µM) | 95.2% | 22.7 µg/mL (≈ 71.5 µM) | > 30% | –
Cc1cc(NC(=O)NC2C3CC4CC(C3)CC2C4)no1 (stereo not drawn) | 5 nM | > 48 µg/mL | > 200 µg/mL | > 200 µg/mL | > 200 µg/mL | > 200 µg/mL | > 200 µg/mL | > 200 µg/mL | > 200 µg/mL | > 200 µg/mL | > 200 µg/mL | > 200 µg/mL | > 200 µg/mL | > 200 µg/mL | > 200 µg/mL | > 200 µg/mL | 6.25 µg/mL (≈ 22.7 µM) | – | 25.5 µg/mL (≈ 92.6 µM) | – | –
CC(C)c1nnc(NC(=O)NC2C3CC4CC(C3)CC2C4)o1 (stereo not drawn) | 843 nM | 33 µg/mL (≈ 108 µM) | > 200 µg/mL | > 200 µg/mL | > 200 µg/mL | > 200 µg/mL | > 200 µg/mL | > 200 µg/mL | 100 µg/mL (≈ 329 µM) | > 200 µg/mL | 100 µg/mL (≈ 329 µM) | 200 µg/mL (≈ 657 µM) | > 200 µg/mL | > 200 µg/mL | 100 µg/mL (≈ 329 µM) | 100 µg/mL (≈ 329 µM) | 1.56 µg/mL (≈ 5.12 µM) | 98% | – | > 30% | –
O=C(Nc1nnc(C2CCC2)o1)NC1C2CC3CC(C2)CC1C3 (stereo not drawn) | 382 nM | 36 µg/mL (≈ 114 µM) | > 200 µg/mL | > 200 µg/mL | > 200 µg/mL | > 200 µg/mL | > 200 µg/mL | 50 µg/mL (≈ 158 µM) | 50 µg/mL (≈ 158 µM) | > 200 µg/mL | 100 µg/mL (≈ 316 µM) | 100 µg/mL (≈ 316 µM) | > 200 µg/mL | > 200 µg/mL | > 200 µg/mL | 25 µg/mL (≈ 79 µM) | 0.78 µg/mL (≈ 2.47 µM) | – | – | > 30% | –
O=C(Nc1ncco1)NC12CC3CC(CC(C3)C1)C2 | 948 nM | 22 µg/mL (≈ 84.2 µM) | > 200 µg/mL | > 200 µg/mL | > 200 µg/mL | > 200 µg/mL | > 200 µg/mL | > 200 µg/mL | > 200 µg/mL | > 200 µg/mL | > 200 µg/mL | > 200 µg/mL | > 200 µg/mL | > 200 µg/mL | > 200 µg/mL | > 200 µg/mL | 6.25 µg/mL (≈ 23.9 µM) | – | 4.4 µg/mL (≈ 16.8 µM) | – | –
CC(C)(C)c1cc(NC(=O)NC23CC4CC(CC(C4)C2)C3)no1 | 56 nM | 6 µg/mL (≈ 18.9 µM) | > 200 µg/mL | > 200 µg/mL | > 200 µg/mL | > 200 µg/mL | 100 µg/mL (≈ 315 µM) | – | > 200 µg/mL | > 200 µg/mL | > 200 µg/mL | > 200 µg/mL | 200 µg/mL (≈ 630 µM) | 100 µg/mL (≈ 315 µM) | 100 µg/mL (≈ 315 µM) | > 200 µg/mL | 1.56 µg/mL (≈ 4.91 µM) | – | – | > 30% | –
COC(=O)c1ccc(NC(=O)NC23CC4CC(CC(C4)C2)C3)cc1O | – | – | – | – | – | – | – | – | – | – | – | – | – | – | – | – | – | – | – | – | solubility ([19]; pH 7.4, 18 h): 0.51 µg/mL (≈ 1.48 µM); fraction unbound at 4 h, 10 µM [21]: 0.031
